Values of other authors in patent EP4781989A1, “POSACONAZOLE SOLID DISPERSION AND PREPARATION METHOD THEREFOR” (BEIJING DELIVERY PHARMACEUTICAL TECHNOLOGY CO., LTD, priority 2023, dated 2024).
Where two headings read alike, the source gives them in different places.

solubility (at about pH 6.4 or higher): less than 1 µg/mL
solubility (gastric environment with about pH 1): about 0.8 mg/mL
Structure (SMILES): CC[C@@H]([C@H](C)O)n1ncn(-c2ccc(N3CCN(c4ccc(OC[C@@H]5CO[C@@](Cn6cncn6)(c6ccc(F)cc6F)C5)cc4)CC3)cc2)c1=O [Posaconazole]
